The values that follow come from patent US8969565B2, “Imidazo[1,2-b]pyridazine-based compounds, compositions comprising them, and methods of their use” (Lexicon Pharmaceuticals, Inc., priority 2012, dated 2015).

Experiment [1] has as its target T1, AAK1 (Homo sapiens, UniProt Q2M2I8).
T1 construct: HA; expressed in transfected cells; host or cells: HEK293F
In words: HEK281 cell-based assay (phospho-mu2 Western blot in transfected HEK293F cells). As to conditions: 3 hours incubation, read-out: CBA IC50. In short, it runs like this: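 After 3 hours at 37° C. with compound (five 3-fold-spaced concentrations, DMEM+0.5% FBS), transiently transfected HEK293F cells expressing full-length human AAK1 and Flag-tagged mu2 were lysed. mu2 phosphorylation was read by anti-phospho-mu2 immunoblot, normalized against total mu2 by anti-Flag blot.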
In general terms: In western blotting, separated proteins are transferred to a membrane and probed.

The target in experiment [2] is T1, AAK1. Nature of the experiment: P81 filter plate assay. Format: biochemical. To be noted: full-length human AAK1, Mu2 substrate.

T1 sequence (Q2M2I8 1-863 isoform Q2M2I8-2): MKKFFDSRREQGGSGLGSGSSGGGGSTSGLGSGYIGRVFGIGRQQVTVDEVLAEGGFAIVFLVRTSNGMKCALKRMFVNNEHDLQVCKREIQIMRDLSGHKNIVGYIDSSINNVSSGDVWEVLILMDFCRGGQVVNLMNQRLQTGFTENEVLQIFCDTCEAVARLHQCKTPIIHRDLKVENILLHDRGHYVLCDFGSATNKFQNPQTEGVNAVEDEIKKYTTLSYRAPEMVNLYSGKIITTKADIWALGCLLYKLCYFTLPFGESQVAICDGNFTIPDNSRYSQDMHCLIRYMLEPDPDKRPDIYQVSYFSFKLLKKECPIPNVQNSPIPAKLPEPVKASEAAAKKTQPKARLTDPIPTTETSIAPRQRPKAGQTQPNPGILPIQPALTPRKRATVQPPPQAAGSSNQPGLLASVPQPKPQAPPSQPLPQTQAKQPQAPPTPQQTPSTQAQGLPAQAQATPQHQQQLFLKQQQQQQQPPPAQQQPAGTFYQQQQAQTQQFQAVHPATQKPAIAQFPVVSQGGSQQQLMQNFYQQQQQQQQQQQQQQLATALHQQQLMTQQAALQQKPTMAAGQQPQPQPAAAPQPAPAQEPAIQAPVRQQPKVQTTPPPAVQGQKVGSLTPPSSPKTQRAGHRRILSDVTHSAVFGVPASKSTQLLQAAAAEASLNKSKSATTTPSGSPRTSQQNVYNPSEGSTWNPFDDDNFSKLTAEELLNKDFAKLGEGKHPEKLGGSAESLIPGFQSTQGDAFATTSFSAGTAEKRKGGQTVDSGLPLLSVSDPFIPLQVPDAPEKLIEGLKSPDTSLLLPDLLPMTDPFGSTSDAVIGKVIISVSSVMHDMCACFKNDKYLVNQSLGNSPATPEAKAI

Consider `CC(C)CC(=O)N1CCC[C@H]1CNc1ccc2ncc(-c3ccccc3)n2n1` [(S)-3-methyl-1-(2-(((3-phenylimidazo[1,2-b]pyridazin-6-yl)amino)methyl)pyrrolidin-1-yl)butan-1-one], for which the IC50 is at most 100 nM in experiment [1] and at most 10 nM in experiment [2].

Regarding `CC(C)CC(=O)N1CCC[C@H]1CNc1ccc2ncc(-c3ccc(C#N)cc3)n2n1` [(S)-4-(6-(((1-(3-methylbutanoyl)pyrrolidin-2-yl)methyl)amino)imidazo[1,2-b]pyridazin-3-yl)benzonitrile], the IC50 in experiment [1] and in experiment [2] was at most 10 nM in each case.

For the compound `CC(C)(C)CCN1C(=O)CC[C@H]1CNc1ccc2ncc(-c3ccc(CN)cc3)n2n1` [(S)-5-(((3-(4-(aminomethyl)phenyl)imidazo[1,2-b]pyridazin-6-yl)amino)methyl)-1-(3,3-dimethylbutyl)pyrrolidin-2-one], the IC50 in experiment [1] is at most 100 nM; in experiment [2], at most 10 nM.

In the case of `CC(C)CCN1C(=O)CC[C@H]1CNc1ccc2ncc(-c3ccc(CN)cc3)n2n1` [(S)-5-(((3-(4-(aminomethyl)phenyl)imidazo[1,2-b]pyridazin-6-yl)amino)methyl)-1-isopentylpyrrolidin-2-one], the IC50 in experiment [1] is at most 100 nM; in experiment [2] it was at most 10 nM.

As for `CC(C)(C)CCN1C(=O)CC[C@H]1CNc1ccc2ncc(Br)n2n1` [(S)-5-(((3-bromoimidazo[1,2-b]pyridazin-6-yl)amino)methyl)-1-(3,3-dimethylbutyl)pyrrolidin-2-one], the results for the IC50 in experiment [1] and in experiment [2] were at most 100 nM and at most 10 nM, respectively.

As to `COc1ccccc1-c1cnc2ccc(NC[C@@H]3CCCN3C(=O)NC(C)(C)C)nn12` [(S)-N-(tert-butyl)-2-(((3-(2-methoxyphenyl)imidazo[1,2-b]pyridazin-6-yl)amino)methyl)pyrrolidine-1-carboxamide], the IC50 was at most 100 nM in experiment [1] and at most 10 nM in experiment [2].

Turning to `CC(C)(C)NC(=O)N1CCC[C@H]1CNc1ccc2ncc(-c3ccncc3)n2n1` [(S)-N-(tert-butyl)-2-(((3-(pyridin-4-yl)imidazo[1,2-b]pyridazin-6-yl)amino)methyl)pyrrolidine-1-carboxamide], the results for the IC50 in experiment [1] and in experiment [2] were at most 100 nM and at most 10 nM, respectively.

Turning to `CC(C)(C)NC(=O)N1CCC[C@H]1CNc1ccc2ncc(-c3ccccc3)n2n1` [(S)-N-(tert-butyl)-2-(((3-phenylimidazo[1,2-b]pyridazin-6-yl)amino)methyl)pyrrolidine-1-carboxamide], the IC50 in experiment [1] was at most 100 nM; in experiment [2], at most 10 nM.

`COc1ccccc1-c1cnc2ccc(NC[C@@H]3CCCN3C(=O)NC3CCCC3)nn12` [(S)-N-cyclopentyl-2-(((3-(2-methoxyphenyl)imidazo[1,2-b]pyridazin-6-yl)amino)methyl)pyrrolidine-1-carboxamide]: the figures for the IC50 in experiment [1] and in experiment [2] were at most 1000 nM and at most 10 nM, respectively.

As to `CC(C)(C)CNC(=O)N1CCC[C@H]1CNc1ccc2ncc(-c3ccccc3)n2n1` [(S)-N-neopentyl-2-(((3-phenylimidazo[1,2-b]pyridazin-6-yl)amino)methyl)pyrrolidine-1-carboxamide], the IC50 in experiment [1] is at most 100 nM; in experiment [2], at most 10 nM.

As to `CC(C)(C)OC(=O)N1CCC[C@H]1CNc1ccc2ncc(C(F)F)n2n1` [(S)-Tert-butyl 2-(((3-(difluoromethyl)imidazo[1,2-b]pyridazin-6-yl)amino)methyl)pyrrolidine-1-carboxylate], the IC50 is at most 1000 nM in experiment [1] and at most 10 nM in experiment [2].

For the compound `COc1ccccc1-c1cnc2ccc(NC[C@@H]3CCCN3C(=O)OC3CCC3)nn12` [(S)-cyclobutyl 2-(((3-(2-methoxyphenyl)imidazo[1,2-b]pyridazin-6-yl)amino)methyl)pyrrolidine-1-carboxylate], the IC50 in experiment [1] was at most 100 nM; in experiment [2], at most 10 nM.

In the case of `O=C(OC1CCC1)N1CCC[C@H]1CNc1ccc2ncc(-c3ccncc3)n2n1` [(S)-cyclobutyl 2-(((3-(pyridin-4-yl)imidazo[1,2-b]pyridazin-6-yl)amino)methyl)pyrrolidine-1-carboxylate], the IC50 in experiment [1] and in experiment [2] was at most 10 nM each time.

`O=C(OC1CCC1)N1CCC[C@H]1CNc1ccc2ncc(Br)n2n1` [(S)-cyclobutyl 2-(((3-bromoimidazo[1,2-b]pyridazin-6-yl)amino)methyl)pyrrolidine-1-carboxylate]: the IC50 is at most 100 nM in experiment [1] and at most 10 nM in experiment [2].

Take `NCc1ccc(-c2cnc3ccc(NC[C@@H]4CCCN4C(=O)OC4CCCC4)nn23)cc1` [(S)-cyclopentyl 2-(((3-(4-(aminomethyl)phenyl)imidazo[1,2-b]pyridazin-6-yl)amino)methyl)pyrrolidine-1-carboxylate]: the IC50 in experiment [1] and in experiment [2] was at most 10 nM in each case.

Regarding `O=C(OC1CCCC1)N1CCC[C@H]1CNc1ccc2ncc(-c3ccncc3)n2n1` [(S)-cyclopentyl 2-(((3-(pyridin-4-yl)imidazo[1,2-b]pyridazin-6-yl)amino)methyl)pyrrolidine-1-carboxylate], the IC50 in experiment [1] and in experiment [2] was at most 10 nM each time.

`O=C(OC1CCCC1)N1CCC[C@H]1CNc1ccc2ncc(Br)n2n1` [(S)-cyclopentyl 2-(((3-bromoimidazo[1,2-b]pyridazin-6-yl)amino)methyl)pyrrolidine-1-carboxylate]: the IC50 in experiment [1] and in experiment [2] was at most 10 nM in each case.

Consider `O=C(OC1CCCC1)N1CCC[C@H]1CNc1ccc2ncc(-c3ccccc3)n2n1` [(S)-cyclopentyl 2-(((3-phenylimidazo[1,2-b]pyridazin-6-yl)amino)methyl)pyrrolidine-1-carboxylate], for which the results for the IC50 in experiment [1] and in experiment [2] were at most 100 nM and at most 10 nM, respectively.

In the case of `[2H]C([2H])([2H])Oc1ncccc1-c1cnc2ccc(N3CC[C@H](N(C)C(=O)OCC)C3)nn12` [(S)-ethyl (1-(3-(2-(trideuteromethoxy)pyridin-3-yl)imidazo[1,2-b]pyridazin-6-yl)pyrrolidin-3-yl)(methyl)carbamate], the IC50 in experiment [1] was at most 100 nM; in experiment [2], at most 10 nM.

Consider `CCOC(=O)N(C)[C@H]1CCN(c2ccc3ncc(-c4cc(C)cnc4OC)n3n2)C1` [(S)-ethyl (1-(3-(2-methoxy-5-methylpyridin-3-yl)imidazo[1,2-b]pyridazin-6-yl)pyrrolidin-3-yl)(methyl)carbamate], for which the IC50 was at most 100 nM in experiment [1] and at most 10 nM in experiment [2].

On to `CCOC(=O)N(C)[C@H]1CCN(c2ccc3ncc(-c4cccnc4OC)n3n2)C1` [(S)-ethyl (1-(3-(2-methoxypyridin-3-yl)imidazo[1,2-b]pyridazin-6-yl)pyrrolidin-3-yl)(methyl)carbamate], for which the IC50 in experiment [1] is at most 100 nM; in experiment [2] it was at most 10 nM.

Take `CCOC(=O)N(C)[C@H]1CCN(c2ccc3ncc(-c4cc(F)ccc4OC)n3n2)C1` [(S)-ethyl (1-(3-(5-fluoro-2-methoxyphenyl)imidazo[1,2-b]pyridazin-6-yl)pyrrolidin-3-yl)(methyl)carbamate]: the IC50 in experiment [1] is at most 100 nM; in experiment [2], at most 10 nM.

`CCOC(=O)N(C)[C@H]1CCN(c2ccc3ncc(-c4cc(F)cnc4OC)n3n2)C1` [(S)-ethyl (1-(3-(5-fluoro-2-methoxypyridin-3-yl)imidazo[1,2-b]pyridazin-6-yl)pyrrolidin-3-yl)(methyl)carbamate]: the IC50 in experiment [1] is at most 100 nM; in experiment [2] it was at most 10 nM.

Turning to `COc1ncccc1-c1cnc2ccc(N(C)C[C@@H]3CCCN3C(=O)OC(C)C)nn12` [(S)-isopropyl 2-(((3-(2-methoxypyridin-3-yl)imidazo[1,2-b]pyridazin-6-yl)(methyl)amino)methyl)pyrrolidine-1-carboxylate], the IC50 in experiment [1] and in experiment [2] was at most 10 nM each time.

For `COc1ncccc1-c1cnc2ccc(NC[C@@H]3CCCN3C(=O)OC(C)C)nn12` [(S)-isopropyl 2-(((3-(2-methoxypyridin-3-yl)imidazo[1,2-b]pyridazin-6-yl)amino)methyl)pyrrolidine-1-carboxylate], the IC50 in experiment [1] and in experiment [2] was at most 10 nM throughout.

Take `CC(C)OC(=O)N1CCC[C@H]1CNc1ccc2ncc(C#N)n2n1` [(S)-isopropyl 2-(((3-cyanoimidazo[1,2-b]pyridazin-6-yl)amino)methyl)pyrrolidine-1-carboxylate]: the IC50 in experiment [1] is at most 1000 nM; in experiment [2] it was at most 10 nM.

`COc1ccc(-c2cnc3ccc(N4CC[C@H](N(C)C(=O)OC(C)C)C4)nn23)c(OC)n1` [(S)-isopropyl (1-(3-(2,6-dimethoxypyridin-3-yl)imidazo[1,2-b]pyridazin-6-yl)pyrrolidin-3-yl)(methyl)carbamate]: the IC50 was at most 100 nM in experiment [1] and at most 10 nM in experiment [2].

In the case of `[2H]C([2H])([2H])Oc1ncccc1-c1cnc2ccc(N3CC[C@H](N(C)C(=O)OC(C)C)C3)nn12` [(S)-isopropyl (1-(3-(2-(tri-deuteromethoxy)pyridin-3-yl)imidazo[1,2-b]pyridazin-6-yl)pyrrolidin-3-yl)(methyl)carbamate], the IC50 in experiment [1] and in experiment [2] was at most 10 nM each time.

For the compound `COc1ncc(C)cc1-c1cnc2ccc(N3CC[C@H](N(C)C(=O)OC(C)C)C3)nn12` [(S)-isopropyl (1-(3-(2-methoxy-5-methylpyridin-3-yl)imidazo[1,2-b]pyridazin-6-yl)pyrrolidin-3-yl)(methyl)carbamate], the IC50 is at most 100 nM in experiment [1] and at most 10 nM in experiment [2].

On to `COc1cc(-c2cnc3ccc(N4CC[C@H](N(C)C(=O)OC(C)C)C4)nn23)c(OC)nn1` [(S)-isopropyl (1-(3-(3,6-dimethoxypyridazin-4-yl)imidazo[1,2-b]pyridazin-6-yl)pyrrolidin-3-yl)(methyl)carbamate], for which the IC50 in experiment [1] was at most 100 nM; in experiment [2], at most 10 nM.

Regarding `CC(C)OC(=O)N(C)[C@H]1CCN(c2ccc3ncc(-c4ccc(CN)cc4)n3n2)C1` [(S)-isopropyl (1-(3-(4-(aminomethyl)phenyl)imidazo[1,2-b]pyridazin-6-yl)pyrrolidin-3-yl)(methyl)carbamate], the IC50 in experiment [1] and in experiment [2] was at most 10 nM in each case.

By IC50 is commonly meant the concentration that gives 50% inhibition.
